# Experimental data taken from US10041937B2, “Macrophage identification agent, and identification method, sorting method, evaluation method, screening method and kit using the macrophage identifier agent” (CANON KABUSHIKI KAISHA, priority 2013, dated 2018).
# System: M1 macrophages and M2 macrophages differentiated from mouse bone marrow cells
# Test: Subtype identification by staining and flow cytometry of M1 and M2 macrophages differentiated from mouse bone marrow cells
# Type: cell-based, Balb/c mouse
# Experimental: The culture of subtypes was performed according to a protocol described in NPL 7. Specifically, bone marrow cells collected from the femur of a Balb/c mouse of 8 to 10 weeks old were dispersed to a concentration of 1×10^6/mL in an IMDM containing 20% FBS and 1% P/S, and 1×10^7 cells were seeded in a 100 mm dish. After further adding an M-CSF (manufactured by Pepro Tech) thereto to a concentration of 50 ng/mL, the cells were incubated for 3 to 4 days in the presence of 5% CO2 at 37° C., so as to differentiate macrophage precursor cells to macrophages. After exchanging the medium, the M-CSF was added to a concentration of 50 ng/mL, and the incubation was performed for further 3 to 4 days in the presence of 5% CO2 at 37° C., and then, the resulting cells were differentiated to macrophage. By adding 200 ng of interferon-γ and 1 μg of […] (both manufactured by Pepro Tech) to the IMDM containing 5% FBS and 1% P/S, the cells were differentiated to the subtype M1. Besides, by adding 100 ng of IL-4 to the IMDM containing 5% FBS and 1% P/S, the cells were differentiated to the subtype M2. After performing the incubation for further 3 days in the presence of 5% CO2 at 37° C., the resultant was rinsed with PBS, and PBS containing 0.25% trypsin and 1 mM EDTA (ethylenediaminetetraacetic acid) was used for collecting, from the dish, the macrophages having been differentiated to the subtypes M1 and M2.
# Thereafter, the tube was centrifuged at 180 G for 10 minutes to remove the supernatant, a dye for identifying dead cells (aqua fluorescent reactive dye, manufactured by Invitrogen; which is hereinafter sometimes abbreviated as aqua) was added thereto, and the resultant was incubated at 4° C. for 10 minutes. Subsequently, the tube was centrifuged at 180 G for 10 minutes to remove the supernatant, cells were suspended in a FACS buffer to be analyzed by using FACSCanto (trademark) II flow cytometry apparatus manufactured by BD.
# The analysis was performed on a cell population showing a low signal for the aqua, so as to analyze a cell population from which dead cells were eliminated. […] A histogram was prepared by plotting fluorescence intensity obtained in the FITC channel on the abscissa and plotting the number of cells at each fluorescence intensity on the ordinate, which is shown in FIG. 2.
# Histograms were prepared by plotting fluorescence intensities obtained in the respective channels on the abscissa and plotting the numbers of cells at each fluorescence intensity on the ordinate. A difference between a fluorescence intensity (FM1) at a peak top of the histogram of the M1 macrophage and a fluorescence intensity (FM2) at a peak top of the histogram of the M2 macrophage is divided by a sum of a peak width (WM1) of the histogram of the M1 macrophage and a peak width (WM2) of the histogram of the M2 macrophage, so as to obtain a resolution R, which was used as an index of the identification ability for a subtype (see the following expression (1)). Resolution R=|FM1−FM2|/(WM1+WM2) Expression (1)
# [1] = R=|FM1−FM2|/(WM1+WM2), compound 1 μM
# [2] = fluorescence intensity at peak top of histogram, compound 1 μM, 37° C., 30 minutes
# [3] = M1 vs M2 macrophages from mouse bone marrow cells, general formula (10) dyes (Table 8)
# [4] = class based on resolution R, general formula (10) dyes (Table 8)
# [5] = mouse bone marrow-derived M1 macrophages, channel listed per compound, general formula (10) dyes (Table 8)
# [6] = mouse bone marrow-derived M2 macrophages, channel listed per compound, general formula (10) dyes (Table 8)
Structure (SMILES),Resolution ratio R [1],Peak position of M1 macrophage [2],Peak position of M2 macrophage [2],Evaluation of macrophage subtype identification (rated from resolution R),further results
CCN1/C(=C\C=C\c2oc3ccccc3[n+]2CC)Oc2ccccc21 [(98)],,,,,"Resolution ratio R (M1 vs M2 macrophages from mouse bone marrow cells, general formula (6) dyes (Table 7)): 0.507; Evaluation of macrophage subtype identification (class based on resolution R, general formula (6) dyes (Table 7)): A (The compound is very good in the subtype identification (namely, the resolution R is 0.5 or more)); Peak position of M1 macrophage (mouse bone marrow-derived M1 macrophages, channel listed per compound, general formula (6) dyes (Table 7)): 21.95; Peak position of M2 macrophage (mouse bone marrow-derived M2 macrophages, channel listed per compound, general formula (6) dyes (Table 7)): 61.59"
O=C(O)CCN1C(=O)/C(=C\c2cc(Br)c3c(c2)C2CCCC2N3c2ccc(Br)cc2)SC1=S (stereo not drawn) [(11)],0.544,30.5,16.2,"A (The compound is very good in the subtype identification (namely, the resolution R is 0.5 or more))",
CSc1ccc(N2c3ccc(/C=C4/SC(=S)N(CCC(=O)O)C4=O)cc3C3CCCC32)cc1 (stereo not drawn) [(6)],0.504,26.5,50.4,"A (The compound is very good in the subtype identification (namely, the resolution R is 0.5 or more))",
CCN1c2ccc(/C=C/C=C3/SC(=S)N(CCC(=O)O)C3=O)cc2C2CCCC21 (stereo not drawn) [(76)],0.283,7.77,10.5,"B (the compound is good in the subtype identification (namely, the resolution R is 0.15 or more and less than 0.5))",
COc1ccc(N2c3ccc(/C=C4\C(=O)N(c5ccccc5)N=C4C(=O)O)cc3C3CCCC32)cc1 (stereo not drawn) [compound (33)],0.522,5.00,9.05,"A (The compound is very good in the subtype identification (namely, the resolution R is 0.5 or more))","subtype more strongly stained (two compounds used in combination, each 1 μM): the M2 macrophages are more strongly stained than the M1 macrophages"
CCN(CC)c1ccc2cc(-c3nc4ccccc4[nH]3)c(=O)oc2c1 [(131)],,,,,"Resolution ratio R [3]: 0.480; Evaluation of macrophage subtype identification [4]: B (the compound is good in the subtype identification (namely, the resolution R is 0.15 or more and less than 0.5)); Peak position of M1 macrophage [5]: 8.06; Peak position of M2 macrophage [6]: 13.5"
CCN(CC)c1ccc2cc(-c3nc4cc(Cl)ccc4s3)c(=O)oc2c1 [(122)],,,,,"Resolution ratio R [3]: 0.377; Evaluation of macrophage subtype identification [4]: B (the compound is good in the subtype identification (namely, the resolution R is 0.15 or more and less than 0.5)); Peak position of M1 macrophage [5]: 142; Peak position of M2 macrophage [6]: 211"
O=C(O)CN1C(=O)/C(=C\c2ccc3c(c2)C2CCCC2N3Cc2ccccc2)SC1=S (stereo not drawn) [(28)],0.431,9.54,15.8,"B (the compound is good in the subtype identification (namely, the resolution R is 0.15 or more and less than 0.5))",
COc1ccc(N2c3ccc(/C=c4/s/c(=C5/SC(=S)N(Cc6ccccc6)C5=O)n(CC(=O)O)c4=O)cc3C3CCCC32)cc1 (stereo not drawn) [(54)],0.531,154,211,"A (The compound is very good in the subtype identification (namely, the resolution R is 0.5 or more))",
CCOC(=O)CN1C(=O)/C(=C\c2ccc3c(c2)C2CCCC2N3c2ccc(C=C(c3ccccc3)c3ccccc3)cc2)SC1=S (stereo not drawn) [(19)],0.319,0.90,0.64,"B (the compound is good in the subtype identification (namely, the resolution R is 0.15 or more and less than 0.5))",
CC1(C)CCN2CCC(C)(C)c3c2c1cc1cc(-c2nc4ccccc4s2)c(=O)oc31 [(138)],,,,,"Resolution ratio R [3]: 0.312; Evaluation of macrophage subtype identification [4]: B (the compound is good in the subtype identification (namely, the resolution R is 0.15 or more and less than 0.5)); Peak position of M1 macrophage [5]: 20.6; Peak position of M2 macrophage [6]: 28.0"
